# PubChem BioAssay (NCI)
#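 Where inhibition never reached the appropriate level, the endpoint shown equals the highest concentration tested. Otherwise, values were interpolated linearly from a five-concentration, 48-hour dose response in 96-well plates. GI50 marks 50% less growth. TGI: concentration producing complete growth inhibition.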
# How the values were obtained:
# Experiment in all cases: inhibition of tumour cell growth, NCI panel, 48 h
# MOLT-4 leukemia = tested on: MOLT-4 leukemia
# NCI-H226 lung = tested on: NCI-H226 lung
# NCI-H23 lung = tested on: NCI-H23 lung
# NCI-H460 lung = tested on: NCI-H460 lung
# NCI-H522 lung = tested on: NCI-H522 lung
# OVCAR-3 ovarian = tested on: OVCAR-3 ovarian
# OVCAR-4 ovarian = tested on: OVCAR-4 ovarian
# OVCAR-5 ovarian = tested on: OVCAR-5 ovarian
# OVCAR-8 ovarian = tested on: OVCAR-8 ovarian
# PC-3 prostate = tested on: PC-3 prostate
# RPMI-8226 leukemia = tested on: RPMI-8226 leukemia
# RXF 393 renal = tested on: RXF 393 renal
# SF-268 CNS = tested on: SF-268 CNS
# SF-295 CNS = tested on: SF-295 CNS
# SF-539 CNS = tested on: SF-539 CNS
# SK-MEL-2 melanoma = tested on: SK-MEL-2 melanoma
# SK-MEL-28 melanoma = tested on: SK-MEL-28 melanoma
# SK-MEL-5 melanoma = tested on: SK-MEL-5 melanoma
# SK-OV-3 ovarian = tested on: SK-OV-3 ovarian
# SN12C renal = tested on: SN12C renal
# SNB-19 CNS = tested on: SNB-19 CNS
# SR leukemia = tested on: SR leukemia
# SW-620 colon = tested on: SW-620 colon
# T-47D breast = tested on: T-47D breast
# TK-10 renal = tested on: TK-10 renal
# U251 CNS = tested on: U251 CNS
# UACC-257 melanoma = tested on: UACC-257 melanoma
# UACC-62 melanoma = tested on: UACC-62 melanoma
# UO-31 renal = tested on: UO-31 renal
compound,measurement,setting,value
CN(C)c1nc(NCCNS(=O)(=O)c2ccc(C3=Nc4c(N)nc(N)nc4NC(c4ccc(C(F)(F)F)cc4)C3)cc2)nc(N2CCOCC2)n1 (configuration not stated),TGI,MOLT-4 leukemia,> 100 µM
same,GI50,NCI-H226 lung,17.6 µM
same,TGI,NCI-H226 lung,> 100 µM
same,GI50,NCI-H23 lung,37.6 µM
same,TGI,NCI-H23 lung,> 100 µM
same,GI50,NCI-H460 lung,36.5 µM
same,TGI,NCI-H460 lung,> 100 µM
same,GI50,NCI-H522 lung,51.7 µM
same,TGI,NCI-H522 lung,> 100 µM
same,GI50,OVCAR-3 ovarian,53.9 µM
same,TGI,OVCAR-3 ovarian,> 100 µM
same,GI50,OVCAR-4 ovarian,37 µM
same,TGI,OVCAR-4 ovarian,> 100 µM
same,GI50,OVCAR-5 ovarian,27 µM
same,TGI,OVCAR-5 ovarian,95.9 µM
same,GI50,OVCAR-8 ovarian,59.5 µM
same,TGI,OVCAR-8 ovarian,> 100 µM
same,GI50,PC-3 prostate,24.6 µM
same,TGI,PC-3 prostate,> 100 µM
same,GI50,RPMI-8226 leukemia,11.2 µM
same,TGI,RPMI-8226 leukemia,> 100 µM
same,GI50,RXF 393 renal,10.3 µM
same,TGI,RXF 393 renal,45.5 µM
same,GI50,SF-268 CNS,19.9 µM
same,TGI,SF-268 CNS,> 100 µM
same,GI50,SF-295 CNS,21.1 µM
same,TGI,SF-295 CNS,83.7 µM
same,GI50,SF-539 CNS,22.5 µM
same,TGI,SF-539 CNS,87.9 µM
same,GI50,SK-MEL-2 melanoma,15.8 µM
same,TGI,SK-MEL-2 melanoma,30.2 µM
same,GI50,SK-MEL-28 melanoma,34.1 µM
same,TGI,SK-MEL-28 melanoma,> 100 µM
same,GI50,SK-MEL-5 melanoma,15.9 µM
same,TGI,SK-MEL-5 melanoma,30.1 µM
same,GI50,SK-OV-3 ovarian,69.7 µM
same,TGI,SK-OV-3 ovarian,> 100 µM
same,GI50,SN12C renal,35.7 µM
same,TGI,SN12C renal,> 100 µM
same,GI50,SNB-19 CNS,30 µM
same,TGI,SNB-19 CNS,> 100 µM
same,GI50,SR leukemia,18.1 µM
same,TGI,SR leukemia,> 100 µM
same,GI50,SW-620 colon,46.9 µM
same,TGI,SW-620 colon,> 100 µM
same,GI50,T-47D breast,21.3 µM
same,TGI,T-47D breast,> 100 µM
same,GI50,TK-10 renal,54.4 µM
same,TGI,TK-10 renal,> 100 µM
same,GI50,U251 CNS,24.2 µM
same,TGI,U251 CNS,> 100 µM
same,GI50,UACC-257 melanoma,20.4 µM
same,TGI,UACC-257 melanoma,54.9 µM
same,GI50,UACC-62 melanoma,16.4 µM
same,TGI,UACC-62 melanoma,36.4 µM
same,GI50,UO-31 renal,> 100 µM
same,TGI,UO-31 renal,> 100 µM
